Source: ChEMBL document CHEMBL4706619, “Synthesis and identification of a novel derivative of salidroside as a selective, competitive inhibitor of monoamine oxidase B with enhanced neuroprotective properties” (Eur J Med Chem, 2021)
Calls of active or inactive are those of the source. No cut-off for these calls is given here.

How the values were obtained:
PC-12 [1] = experiment: Neuroprotective activity against CoCl2-induced cytotoxicity in rat PC12 cells assessed as increase in cell viability at 1 uM pretreated with CoCl2 for 8 hrs followed by incubation with drug and measured after 24 hrs by MTT assay; assay type: functional, cell-based
Rattus norvegicus [2] = experiment: Ex vivo inhibition of MAO activity in infarcted cerebral hemisphere of middle cerebral artery occlusion-induced ischemia-reperfusion injury Sprague-Dawley rat model assessed as inhibition of 4-hydroxyquinoline formation using kynuramine as substrate at 25 mg/kg/day, ip for 2 days by fluorescence spectrophotometry; assay type: functional, organism-based; conditions: time 2.0 day
Rattus norvegicus [3] = experiment: Inhibition of mitochondrial pathway of apoptosis in damaged cerebral hemisphere of middle cerebral artery occlusion-induced ischemia-reperfusion injury Sprague-Dawley rat model assessed as decrease in complement C3 protein expression at 25 mg/kg/day, ip administered for 2 days by western blot analysis; assay type: functional, organism-based; conditions: time 2.0 day
[4] = n-Octanol/saturated water patition coefficient, logP of the compound at 0.05 mg/ml incubated for 24 hrs by HPLC analysis; assay type: physicochemical
Rattus norvegicus [5] = experiment: Neuroprotective activity against middle cerebral artery occlusion-induced ischemia-reperfusion injury Sprague-Dawley rat model assessed as decrease in neurological deficit score administered ip for 2 days; assay type: functional, organism-based; conditions: dose 12.5-50 mg/kg/day, time 2.0 day
Rattus norvegicus [6] = experiment: Inhibition of mitochondrial pathway of apoptosis in damaged cerebral hemisphere of middle cerebral artery occlusion-induced ischemia-reperfusion injury Sprague-Dawley rat model assessed as increase in ratio of Bcl-2 to Bax at 25 mg/kg/day, ip administered for 2 days by western blot analysis; assay type: functional, organism-based; conditions: time 2.0 day
[7] = biological target: T1, Amine oxidase [flavin-containing] B (Homo sapiens, UniProt P27338); experiment: Competitive inhibition of human recombinant MAO-B expressed in baculovirus infected BTI cells assessed as inhibition of 4-hydroxyquinoline formation using varying concentration of kynuramine as substrate preincubated with enzyme for 10 mins followed by addition of substrate and measured after 15 mins by Lineweaver-Burk plot analysis
T1 sequence (P27338 whole entry): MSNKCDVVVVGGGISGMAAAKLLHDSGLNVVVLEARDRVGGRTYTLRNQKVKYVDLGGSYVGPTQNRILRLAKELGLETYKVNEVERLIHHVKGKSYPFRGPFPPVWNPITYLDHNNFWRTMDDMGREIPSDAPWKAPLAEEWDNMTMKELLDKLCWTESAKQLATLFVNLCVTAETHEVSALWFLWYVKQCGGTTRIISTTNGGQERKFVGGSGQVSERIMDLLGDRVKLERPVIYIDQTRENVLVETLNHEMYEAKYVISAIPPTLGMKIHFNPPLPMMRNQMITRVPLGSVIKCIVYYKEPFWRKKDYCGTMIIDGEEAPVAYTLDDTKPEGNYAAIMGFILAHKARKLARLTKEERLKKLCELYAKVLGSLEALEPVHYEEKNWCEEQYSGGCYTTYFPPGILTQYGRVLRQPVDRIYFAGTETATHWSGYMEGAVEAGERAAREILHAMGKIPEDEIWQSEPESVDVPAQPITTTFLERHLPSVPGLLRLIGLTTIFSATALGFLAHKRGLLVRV

[8] = biological target: T1, Amine oxidase [flavin-containing] B; experiment: Inhibition of human recombinant MAO-B expressed in baculovirus infected BTI cells assessed as inhibition of 4-hydroxyquinoline formation using kynuramine as substrate preincubated with enzyme for 10 mins followed by addition of substrate and measured after 15 mins by fluorescence spectrophotometry relative to control; conditions: 0.25 h, time 25 min, read-out: Imax
PC-12 [9] = experiment: Neuroprotective activity against CoCl2-induced cytotoxicity in rat PC12 cells assessed as increase in cell viability pretreated with CoCl2 for 8 hrs followed by incubation with drug and measured after 24 hrs by MTT assay; assay type: functional, cell-based
Rattus norvegicus [10] = experiment: Inhibition of mitochondrial pathway of apoptosis in damaged cerebral hemisphere of middle cerebral artery occlusion-induced ischemia-reperfusion injury Sprague-Dawley rat model assessed as increase in NeuN protein expression at 25 mg/kg/day, ip administered for 2 days by western blot analysis; assay type: functional, organism-based; conditions: time 2.0 day
PC-12 [11] = experiment: Neuroprotective activity against CoCl2-induced cytotoxicity in rat PC12 cells assessed as increase in cell viability pretreated with CoCl2 for 8 hrs followed by incubation with drug and measured after 24 hrs by MTT assay relative to control; assay type: functional
Rattus norvegicus [12] = experiment: Neuroprotective activity against middle cerebral artery occlusion-induced ischemia-reperfusion injury Sprague-Dawley rat model assessed as decrease in cerebral infarct volume at 12.5 to 50 mg/kg/day, ip administered for 2 days by magnetic resonance imaging analysis; assay type: functional, organism-based; conditions: dose 12.5-50 mg/kg/day, time 2.0 day
[13] = biological target: T1, Amine oxidase [flavin-containing] B; experiment: Inhibition of human recombinant MAO-B expressed in baculovirus infected BTI cells assessed as inhibition of 4-hydroxyquinoline formation using kynuramine as substrate preincubated with enzyme for 10 mins followed by addition of substrate and measured after 15 mins by fluorescence spectrophotometry

SMILES	Activity (PC-12 [1])	also measured
CC(=O)Oc1ccc(CCO[C@@H]2O[C@H](CO)[C@@H](O)[C@H](O)[C@H]2O)cc1	Active	
Cc1ccccc1C(=O)Oc1ccc(CCO[C@@H]2O[C@H](CO)[C@@H](O)[C@H](O)[C@H]2O)cc1	Active	
O=C(Oc1ccc(CCO[C@@H]2O[C@H](CO)[C@@H](O)[C@H](O)[C@H]2O)cc1)c1ccc(C(F)(F)F)cc1	Active	
C/C=C/C(=O)Oc1ccc(CCO[C@@H]2O[C@H](CO)[C@@H](O)[C@H](O)[C@H]2O)cc1	Active	
CCCc1ccc(C(=O)Oc2ccc(CCO[C@@H]3O[C@H](CO)[C@@H](O)[C@H](O)[C@H]3O)cc2)cc1	Active	
O=C(OC[C@H]1O[C@@H](OCCc2ccc(O)cc2)[C@H](O)[C@@H](O)[C@@H]1O)c1ccccc1	inactive	
CCc1ccc(C(=O)Oc2ccc(CCO[C@@H]3O[C@H](CO)[C@@H](O)[C@H](O)[C@H]3O)cc2)cc1	Active	
O=C(Oc1ccc(CCO[C@@H]2O[C@H](CO)[C@@H](O)[C@H](O)[C@H]2O)cc1)c1ccccc1	Active	inhibition (Rattus norvegicus [2]): Active; inhibition (Rattus norvegicus [3]): Active; logP at 24 h ([4]; n-octanol/saturated water): 1.44; Activity (Rattus norvegicus [5]): Dose-dependent effect; inhibition (Rattus norvegicus [6]): Active; Ki [7]: 41 nM; Emax [8]: 73.6%; EC50 (PC-12 [9]): 38 nM; inhibition (Rattus norvegicus [10]): Active; Emax (PC-12 [11]): 42%; Activity (Rattus norvegicus [12]): Active; IC50 [13]: 80 nM
C=CC(=O)Oc1ccc(CCO[C@@H]2O[C@H](CO)[C@@H](O)[C@H](O)[C@H]2O)cc1	Active	
OCCc1ccc(O)cc1	inactive	
O=C(Oc1ccc(CCO[C@@H]2O[C@H](CO)[C@@H](O)[C@H](O)[C@H]2O)cc1)c1ccc(CCl)cc1	inactive	
COc1ccc(C(=O)Oc2ccc(CCO[C@@H]3O[C@H](CO)[C@@H](O)[C@H](O)[C@H]3O)cc2)cc1	Active	
O=C(Oc1ccc(CCO[C@@H]2O[C@H](CO)[C@@H](O)[C@H](O)[C@H]2O)cc1)c1cccc(F)c1	Active	
Cc1ccc(C(=O)Oc2ccc(CCO[C@@H]3O[C@H](CO)[C@@H](O)[C@H](O)[C@H]3O)cc2)cc1	Active	
Cc1cccc(C(=O)Oc2ccc(CCO[C@@H]3O[C@H](CO)[C@@H](O)[C@H](O)[C@H]3O)cc2)c1	Active	
OC[C@H]1O[C@@H](O)[C@H](O)[C@@H](O)[C@@H]1O	inactive	
O=C(Oc1ccc(CCO[C@@H]2O[C@H](CO)[C@@H](O)[C@H](O)[C@H]2O)cc1)c1c(Cl)cccc1Cl	inactive	
O=C(Oc1ccc(CCO[C@@H]2O[C@H](CO)[C@@H](O)[C@H](O)[C@H]2O)cc1)C1CCCCC1	Active	
OC[C@H]1O[C@@H](OCCc2ccc(O)cc2)[C@H](O)[C@@H](O)[C@@H]1O [SALIDROSIDE]	Active	logP ([4]; octanol/water, 24 h): -0.89; Ki [7]: 920 nM; Emax [8]: 52%; EC50 (PC-12 [9]): 300 nM; Emax (PC-12 [11]): 27%; IC50 [13]: 810 nM
CC(=O)OC[C@H]1O[C@@H](OCCc2ccc(O)cc2)[C@H](O)[C@@H](OC(C)=O)[C@@H]1O	inactive	
O=C(Oc1ccc(CCO[C@@H]2O[C@H](CO)[C@@H](O)[C@H](O)[C@H]2O)cc1)c1ccc(Cl)c(Cl)c1	inactive	
O=S(=O)(Oc1ccc(CCO[C@@H]2O[C@H](CO)[C@@H](O)[C@H](O)[C@H]2O)cc1)c1ccccc1	inactive	
OC[C@H]1O[C@H](OCCc2ccc(O)cc2)[C@H](O)[C@@H](O)[C@@H]1O	inactive	
CC(=O)OC[C@H]1O[C@@H](OCCc2ccc(O)cc2)[C@H](O)[C@@H](O)[C@@H]1O	inactive	
CCCCCCC(=O)Oc1ccc(CCO[C@@H]2O[C@H](CO)[C@@H](O)[C@H](O)[C@H]2O)cc1	Active	
O=C(Oc1ccc(CCO[C@@H]2O[C@H](CO)[C@@H](O)[C@H](O)[C@H]2O)cc1)c1cccc(CCl)c1	inactive	
O=C(/C=C/c1ccccc1)Oc1ccc(CCO[C@@H]2O[C@H](CO)[C@@H](O)[C@H](O)[C@H]2O)cc1	Active	
O=C(Oc1ccc(CCO[C@@H]2O[C@H](CO)[C@@H](O)[C@H](O)[C@H]2O)cc1)c1ccc2ccccc2c1	inactive	
O=C(Oc1ccc(CCO[C@@H]2O[C@H](CO)[C@@H](O)[C@H](O)[C@H]2O)cc1)c1cccc(Cl)c1	inactive	
O=C(Oc1ccc(CCO[C@@H]2O[C@H](CO)[C@@H](O)[C@H](O)[C@H]2O)cc1)c1cccc(Cl)c1Cl	inactive	
